Assay results as given in ChEMBL document CHEMBL1158862, “Insect Toxins from an Endophytic Fungus from Wintergreen” (J Nat Prod, 1997).

Experiment: Toxicity in spruce budworm larvae assessed as mortality at 0.8 umol
Format: organism-based
Conditions: choristoneura fumiferana, in vivo, read-out: Activity

## CC(C)=CCCC(=O)c1cc2cc(O)ccc2o1
  mortality: 36%
